The text below walks through data of patent US11951094B2, “TLR2 modulator compounds, pharmaceutical compositions and uses thereof” (Axial Therapeutics, Inc., priority 2020, dated 2024).

The target of the test is TLR2 (Homo sapiens, UniProt O60603). Briefly: TLR2 agonist screening assay, HEK-Blue TLR2 reporter cell line (NF-kB-driven SEAP, absorbance at 600 nm). It counts as cell-based. More on the design: host or cells: HEK-293 (HEK-Blue TLR2 reporter cell line). The settings on record: HEK-Blue TLR2 reporter cells, agonist mode; average of all runs (Table 4). Summed up: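 Read-out: SEAP colour change, A600, after overnight agonist exposure. Cells: HEK-293 overexpressing TLR2, NF-kB-SEAP reporter, ~40,000/well, plated 16-24 h prior.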
Sequence of TLR2 (O60603 21-784): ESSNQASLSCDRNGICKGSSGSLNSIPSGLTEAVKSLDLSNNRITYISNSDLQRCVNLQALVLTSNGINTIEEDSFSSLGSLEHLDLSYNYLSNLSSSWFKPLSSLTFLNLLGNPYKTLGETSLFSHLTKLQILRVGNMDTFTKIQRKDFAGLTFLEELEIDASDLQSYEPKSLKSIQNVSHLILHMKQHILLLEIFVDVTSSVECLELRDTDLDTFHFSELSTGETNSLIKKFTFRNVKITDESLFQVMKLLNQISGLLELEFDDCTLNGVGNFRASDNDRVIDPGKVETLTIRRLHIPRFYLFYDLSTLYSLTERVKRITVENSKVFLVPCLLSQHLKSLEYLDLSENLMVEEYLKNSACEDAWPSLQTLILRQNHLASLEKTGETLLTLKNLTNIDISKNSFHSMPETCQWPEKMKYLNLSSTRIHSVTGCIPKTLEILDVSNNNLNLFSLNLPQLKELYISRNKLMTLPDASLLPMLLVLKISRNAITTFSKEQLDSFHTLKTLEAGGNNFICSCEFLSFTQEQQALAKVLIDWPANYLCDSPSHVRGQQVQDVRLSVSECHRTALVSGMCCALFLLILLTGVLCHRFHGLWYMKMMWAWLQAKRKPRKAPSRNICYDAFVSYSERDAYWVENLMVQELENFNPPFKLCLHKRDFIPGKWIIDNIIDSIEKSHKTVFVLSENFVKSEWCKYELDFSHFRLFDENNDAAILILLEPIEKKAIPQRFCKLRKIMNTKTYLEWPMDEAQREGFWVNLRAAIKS
As a reminder, the EC50 is the concentration needed to bring the measured effect to its halfway point. `CCCCCCNC(=O)[C@H](CNC(=O)c1ccc(C(=O)N2C[C@@H](C(=O)N[C@H]3C[C@@H]3c3ccccc3)[C@H](C(=O)N[C@H]3C[C@@H]3c3ccccc3)C2)cc1)NC(=O)CCCC` [Compound 130, (3S,4S)-1-(4-(((S)-3-(hexylamino)-3-oxo-2-pentanamidopropyl)carbamoyl)benzoyl)-N3,N4-bis((1S,2R)-2-phenylcyclopropyl)pyrrolidine-3,4-dicarboxamide] returned an EC50 of 0.351 to 1 µM.
Take `CCCCCCC(=O)N[C@@H](CNC(=O)c1ccc(C(=O)N2C[C@@H](C(=O)N[C@H]3C[C@@H]3c3ccccc3)[C@H](C(=O)N[C@H]3C[C@@H]3c3ccccc3)C2)cc1)C(=O)NCCCC` [Compound 131, (3S,4S)-1-(4-(((S)-3-(butylamino)-2-heptanamido-3-oxopropyl)carbamoyl)benzoyl)-N3,N4-bis((1S,2R)-2-phenylcyclopropyl)pyrrolidine-3,4-dicarboxamide]: the EC50 lay in the range of 0.351 to 1 µM.
Regarding `CCCCCCCCCCCCCCNC(=O)[C@H]1CN(C(c2ccc(C(=O)N3C[C@@H](C(=O)N[C@H]4C[C@@H]4c4ccccc4)[C@H](C(=O)N[C@H]4C[C@@H]4c4ccccc4)C3)cc2)C(F)(F)F)CCN1C` (stereo partly drawn) [Compound 132, (3S,4S)—N3,N4-bis((1S,2R)-2-phenylcyclopropyl)-1-(4-(2,2,2-trifluoro-1-((R)-4-methyl-3-(tetradecylcarbamoyl)piperazin-1-yl)ethyl)benzoyl)pyrrolidine-3,4-dicarboxamide], the EC50 is 0.051 to 0.35 µM.
The figure for `CCCCCCCCCCCCCCC(=O)N[C@H]1CCN(Cc2ccc(C(=O)N3C[C@@H](C(=O)N[C@H]4C[C@@H]4c4ccccc4)[C@H](C(=O)N[C@H]4C[C@@H]4c4ccccc4)C3)cc2)C1=O` [Compound 133, (3S,4S)-1-(4-(((S)-2-oxo-3-pentadecanamidopyrrolidin-1-yl)methyl)benzoyl)-N3,N4-bis((1S,2R)-2-phenylcyclopropyl)pyrrolidine-3,4-dicarboxamide] is greater than 1 µM; for `CCCCCCCCCCCCCCNC(=O)C[C@@H]1CCCN1C(=O)c1ccc(C(=O)N2C[C@@H](C(=O)N[C@H]3C[C@@H]3c3ccccc3)[C@H](C(=O)N[C@H]3C[C@@H]3c3ccccc3)C2)cc1` [Compound 135, (3S,4S)-1-(4-((S)-2-(2-oxo-2-(tetradecylamino)ethyl)pyrrolidine-1-carbonyl)benzoyl)-N3,N4-bis((1S,2R)-2-phenylcyclopropyl) pyrrolidine-3,4-dicarboxamide] it is greater than 1 µM.
In turn, `CCCCCCCCCCCCCCCN1CCCC(NC(=O)c2ccc(C(=O)N3C[C@@H](C(=O)N[C@H]4C[C@@H]4c4ccccc4)[C@H](C(=O)N[C@H]4C[C@@H]4c4ccccc4)C3)cc2)C1=O` (some centres unmarked) [Compound 136] showed an EC50 of 0.0001 to 0.05 µM.
For the compound `CCCCCCNC(=O)[C@H](CNC(=O)c1ccc(C(=O)N2C[C@@H](C(=O)N[C@H]3C[C@@H]3c3ccccc3)[C@H](C(=O)N[C@H]3C[C@@H]3c3ccccc3)C2)cc1)NC(=O)NCCCCC` [Compound 137, (3S,4S)-1-(4-(((S)-3-(hexylamino)-3-oxo-2-(3-pentylureido)propyl)carbamoyl)benzoyl)-N3,N4-bis((1S,2R)-2-phenylcyclopropyl)pyrrolidine-3,4-dicarboxamide], the EC50 was in the range of 0.051 to 0.35 µM.
As to `CCCCCCNC(=O)[C@H](CNC(=O)c1ccc(C(=O)N2C[C@@H](C(=O)N[C@H]3C[C@@H]3c3ccccc3)[C@H](C(=O)N[C@H]3C[C@@H]3c3ccccc3)C2)cc1)NC(=O)CCc1ccc(F)cc1` [Compound 139, (3S,4S)-1-(4-(((S)-2-(3-(4-fluorophenyl)propanamido)-3-(hexylamino)-3-oxopropyl)carbamoyl)benzoyl)-N3,N4-bis ((1S,2R)-2-phenylcyclopropyl) pyrrolidine-3,4-dicarboxamide], the EC50 was 0.0001 to 0.05 µM.
As to `CCCCCCCCNC(=O)[C@H](CNC(=O)c1ccc(C(=O)N2C[C@@H](C(=O)N[C@H]3C[C@@H]3c3ccccc3)[C@H](C(=O)N[C@H]3C[C@@H]3c3ccccc3)C2)cc1)NC(=O)CCCCCC` [Compound 141, (3S,4S)-1-(4-(((S)-2-heptanamido-3-(octylamino)-3-oxopropyl)carbamoyl)benzoyl)-N3,N4-bis((1S,2R)-2-phenylcyclopropyl)pyrrolidine-3,4-dicarboxamide], the EC50 is 0.0001 to 0.05 µM.
`CCCCCCCCCCCCCCNC(=O)C1CCN(Cc2ccc(C(=O)N3C[C@@H](C(=O)N[C@H]4C[C@@H]4c4ccccc4)[C@H](C(=O)N[C@H]4C[C@@H]4c4ccccc4)C3)cc2)C1=O` (stereo partly drawn) [Compound 142, (3S,4S)-1-(4-((2-oxo-3-(tetradecylcarbamoyl)pyrrolidin-1-yl)methyl)benzoyl)-N3,N4-bis((1S,2R)-2-phenylcyclopropyl)pyrrolidine-3,4-dicarboxamide]: the EC50 is greater than 1 µM.
The figure for `CCCCCCC(=O)N[C@@H](CNC(=O)c1ccc(C(=O)N2C[C@@H](C(=O)N[C@H]3C[C@@H]3c3ccccc3)[C@H](C(=O)N[C@H]3C[C@@H]3c3ccccc3)C2)cc1)C(=O)N[C@H]1C[C@@H]1c1ccccc1` [Compound 143, (3S,4S)-1-(4-(((S)-2-heptanamido-3-oxo-3-(((1S,2R)-2-phenylcyclopropyl)amino)propyl)carbamoyl)benzoyl)-N3,N4-bis((1S,2R)-2-phenylcyclopropyl)pyrrolidine-3,4-dicarboxamide] is 0.051 to 0.35 µM; for `O=C(N[C@H]1C[C@@H]1c1ccccc1)[C@@H]1CN(C(=O)C23CCC(C(=O)N4C[C@@H](C(=O)N[C@H]5C[C@@H]5c5ccccc5)[C@H](C(=O)N[C@H]5C[C@@H]5c5ccccc5)C4)(C2)C3)C[C@H]1C(=O)N[C@H]1C[C@@H]1c1ccccc1` [Compound 144, (3S,3'S,4S,4'S)-1,1′-(bicyclo[2.1.1]hexane-1,4-dicarbonyl)bis(N3,N4-bis((1S,2R)-2-phenylcyclopropyl)pyrrolidine-3,4-dicarboxamide)] it is 0.351 to 1 µM; for `CCCCCCCCCCCCCCN1C(=O)CNC(=O)[C@@H]1CNC(=O)c1ccc(C(=O)N2C[C@@H](C(=O)N[C@H]3C[C@@H]3c3ccccc3)[C@H](C(=O)N[C@H]3C[C@@H]3c3ccccc3)C2)cc1` [Compound 147, (3S,4S)-1-(4-((((S)-3,6-dioxo-1-tetradecylpiperazin-2-yl)methyl)carbamoyl)benzoyl)-N3,N4-bis((1S,2R)-2-phenylcyclopropyl)pyrrolidine-3,4-dicarboxamide] it is greater than 1 µM.
Turning to `CCCCCCCCCCCCCCNC(=O)[C@H]1CN(C(=O)c2ccc(C(=O)N3C[C@@H](C(=O)N[C@H]4C[C@@H]4c4ccccc4)[C@H](C(=O)N[C@H]4C[C@@H]4c4ccccc4)C3)cc2)CCO1` [Compound 150, (3S,4S)—N3,N4-bis ((1S,2R)-2-phenylcyclopropyl)-1-(4-((R)-2-(tetradecylcarbamoyl)morpholine-4-carbonyl)benzoyl) pyrrolidine-3,4-dicarboxamide], the EC50 fell in the range of 0.051 to 0.35 µM.
`CCCCCCCCCCCCCCNC(=O)[C@@H]1CN(C(=O)c2ccc(C(=O)N3C[C@@H](C(=O)N[C@H]4C[C@@H]4c4ccccc4)[C@H](C(=O)N[C@H]4C[C@@H]4c4ccccc4)C3)cc2)CCO1` [Compound 151, (3S,4S)—N3,N4-bis((1S,2R)-2-phenylcyclopropyl)-1-(4-((S)-2-(tetradecylcarbamoyl)morpholine-4-carbonyl)benzoyl)pyrrolidine-3,4-dicarboxamide] displayed an EC50 greater than 1 µM.
The figure for `CCCCCCCCCCCCCCC(=O)N1CCC[C@@H](NC(=O)c2ccc(C(=O)N3C[C@@H](C(=O)N[C@H]4C[C@@H]4c4ccccc4)[C@H](C(=O)N[C@H]4C[C@@H]4c4ccccc4)C3)cc2)C1` [Compound 153, (3S,4S)-1-(4-(((R)-1-pentadecanoylpiperidin-3-yl)carbamoyl)benzoyl)-N3,N4-bis((1S,2R)-2-phenylcyclopropyl)pyrrolidine-3,4-dicarboxamide] is greater than 1 µM; for `CCCCCCCCCCCCCCC(=O)N[C@@H]1CN(C(=O)c2ccc(C(=O)N3C[C@@H](C(=O)N[C@H]4C[C@@H]4c4ccccc4)[C@H](C(=O)N[C@H]4C[C@@H]4c4ccccc4)C3)cc2)C[C@H]1OC` [Compound 154, (3S,4S)-1-(4-((3R,4R)-3-methoxy-4-pentadecanamidopyrrolidine-1-carbonyl)benzoyl)-N3,N4-bis((1S,2R)-2-phenylcyclopropyl) pyrrolidine-3,4-dicarboxamide] it is 0.351 to 1 µM; for `CCCCCCCO[C@@H]1CN(C(=O)c2ccc(C(=O)N3C[C@@H](C(=O)N[C@H]4C[C@@H]4c4ccccc4)[C@H](C(=O)N[C@H]4C[C@@H]4c4ccccc4)C3)cc2)C[C@H]1NC(=O)CCCCCC` [Compound 155, (3S,4S)-1-(4-((3R,4R)-3-heptanamido-4-(heptyloxy)pyrrolidine-1-carbonyl)benzoyl)-N3,N4-bis((1S,2R)-2-phenylcyclopropyl)pyrrolidine-3,4-dicarboxamide] it is greater than 1 µM.
As to `CCCCCCCO[C@H]1CN(C(=O)c2ccc(C(=O)N3C[C@@H](C(=O)N[C@H]4C[C@@H]4c4ccccc4)[C@H](C(=O)N[C@H]4C[C@@H]4c4ccccc4)C3)cc2)C[C@@H]1NC(=O)NCCCCC` [Compound 156, (3S,4S)-1-(4-((3S,4S)-3-(heptyloxy)-4-(3-pentylureido)pyrrolidine-1-carbonyl)benzoyl)-N3,N4-bis((1S,2R)-2-phenylcyclopropyl)pyrrolidine-3,4-dicarboxamide], the EC50 fell in the range of 0.051 to 0.35 µM.
Regarding `CCCCCCCCCCCCCCC(=O)N[C@@H]1CN(C(=O)c2ccc(C(=O)N3C[C@@H](C(=O)N[C@H]4C[C@@H]4c4ccccc4)[C@H](C(=O)N[C@H]4C[C@@H]4c4ccccc4)C3)cc2)C[C@H]1O` [Compound 157, (3S,4S)-1-(4-((3R,4R)-3-hydroxy-4-pentadecanamidopyrrolidine-1-carbonyl)benzoyl)-N3,N4-bis ((1S,2R)-2-phenylcyclopropyl) pyrrolidine-3,4-dicarboxamide], the EC50 was 0.351 to 1 µM.
